We go through six compounds from patent publication US11472826B2, “Acyclic antivirals” (priority 2016, dated 2022).

Assay [1] deals with VSV-G pseudotyped HIV NL4-3. The assay can be described thus: microbe, parasite or virus in culture. Conditions: Human immunodeficiency virus 1, NL43, 72 h. Type of assay: cell-based.
The next assay concerns HBV. The assay is described as follows: microbe, parasite or virus in culture. Type of assay: cell-based. Conditions: Hepatitis B virus; HepG2.117 cells, 72 hours, HBV viral copy numbers in supernatant; read-out: EC50.

Bounds are passed on as bounds.

As to `CC(Cc1ccc2c(N)nc(N)nn12)OCP(=O)(O)O` (stereo not drawn) [Compound 9, (((1-(2,4-diaminopyrrolo[2,1-f][1,2,4]triazin-7-yl)propan-2-yl)oxy)methyl) phosphonic Acid], the EC50 in assay [1] is less than 20 µM; in the assay on HBV, 1000 to 10000 nM.

`Nc1ncnc2c(CC(CF)OCP(=O)(O)O)cnn12` (stereo not drawn) [Compound 10, (1-(4-aminopyrazolo[1,5-a][1,3,5]triazin-8-yl)-3-fluoropropan-2-yloxy)methylphosphonic Acid]: the results for the EC50 (in assay [1]; in the assay on HBV) were less than 20 µM and 1000 to 10000 nM, respectively.

As to `CC(C)OC(=O)OCOP(=O)(CO[C@H](C)Cc1ccc2c(N)ncnn12)OCOC(=O)OC(C)C` [Compound 11], the values for the EC50 (in assay [1]; in the assay on HBV) were less than 20 µM and less than 1000 nM, respectively.

Consider `CC(C)OC(=O)OCOP(=O)(CO[C@H](C)Cc1cnc2c(N)ncnn12)OCOC(=O)OC(C)C` [Compound 12], for which the EC50 in assay [1] is less than 20 µM; in the assay on HBV it was less than 1000 nM.

For `CC(C)OC(=O)OCOP(=O)(CO[C@H](C)Cc1cnn2c(N)ncnc12)OCOC(=O)OC(C)C` [Compound 13], the values for the EC50 (in assay [1]; in the assay on HBV) were less than 20 µM and more than 100000 nM, respectively.

With `CC(C)OC(=O)OCOP(=O)(CO[C@@H](C)Cc1cnn2c(N)ncnc12)OCOC(=O)OC(C)C` [Compound 14], the figures for the EC50 (in assay [1]; with HBV) were less than 20 µM and less than 1000 nM, respectively.

As usually defined, the EC50 is the concentration needed to bring the measured effect to its halfway point.
